Measurements: patent US4175081A, “5-Substituted thiadiazole ureas” (priority 1977, dated 1979)

Experiments:
Turnip (TP) [1] = experiment: Post-emergence herbicide test; format: in vivo, Brassica sp.; details: Brassica rapa, post-emergence, 336 h, two weeks after treatment; for pest or weed control at 8966.8 g/ha: 8 lb/acre
Outline: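 A greenhouse post-emergence herbicide test on turnip. Seeds were sown on the surface of potting soil in 3' plastic pots, lightly covered with screened soil and watered from below. Planting was timed so seedlings had 1 or 2 true leaves above the cotyledons at spraying, done in a hood with a fixed nozzle. Control or injury was scored by eye after two weeks.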

Bean (BN) [2] = experiment: Post-emergence herbicide test; format: in vivo, Phaseolus vulgaris var. Black Valentine; details: Phaseolus vulgaris, post-emergence, 336 h, two weeks after treatment; for pest or weed control at 8966.8 g/ha: 8 lb/acre
Outline: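 Snapbean (Phaseolus vulgaris var. Black Valentine) was tested post-emergence. Four seeds were sown in 3' plastic pots of potting soil at a depth equal to the seed diameter, then sub-irrigated in greenhouse trays. Planting dates were staggered so plants were sprayed once primary leaves had expanded, with the growing point at the primary leaf nodes.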

Barnyard grass (BG) [3] = experiment: Post-emergence herbicide test; format: in vivo; details: Echinochloa crus-galli, 336 h, two weeks after treatment
Outline: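 Greenhouse pot-grown barnyard grass seedlings sprayed post-emergence at 8 lbs active compound per acre (some at 4 lbs/acre) in 38 gallons per acre, then sub-irrigated. Injury or control rated visually two weeks after treatment.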

Amaranth pigweed (PW) [4] = experiment: Pre-emergence herbicide test; format: in vivo, Amaranthus retroflexus; details: 336 h, two weeks after treatment; for pest or weed control at 8966.8 g/ha: 8 lb/acre
Outline: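 Pigweed was surface-seeded in potted soil one day before spraying at 8 lbs compound per acre, or 4 lbs/acre, in 38 gallons per acre. Pots were kept in the greenhouse with sub-irrigation only; injury or control was rated visually two weeks after treatment.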

Bean (BN) [5] = experiment: Pre-emergence herbicide test; format: in vivo, Phaseolus vulgaris var. Black Valentine; details: Phaseolus vulgaris, 336 h, two weeks after treatment; for pest or weed control at 8966.8 g/ha: 8 lb/acre
Outline: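 Black Valentine bean was seeded in potting soil one day before spraying. Compound was applied pre-emergence at 8 lbs/acre (also 4 lbs/acre) in 38 gallons per acre. Plants were sub-irrigated and injury or control was rated visually after two weeks.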

Crabgrass (CG) [6] = experiment: Post-emergence herbicide test; format: in vivo, Digitaria sanquinalis; details: Digitaria sanguinalis, post-emergence, 336 h, two weeks after treatment; for pest or weed control at 8966.8 g/ha: 8 lb/acre
Outline: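 Crabgrass (Digitaria sanquinalis) was surface seeded individually in 3' plastic pots of potting soil, covered with screened soil, and watered by sub-irrigation in greenhouse trays. Planting was staggered so seedlings reached the target stage together. Post-emergence sprays were applied in a hood with a removable belt and fixed nozzle, and control was visually rated two weeks after treatment.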

Cotton (CT) [7] = experiment: Pre-emergence herbicide test; format: in vivo, Gossypium hirsutum var. DPL smooth leaf; details: Gossypium hirsutum, 336 h, two weeks after treatment; for pest or weed control at 8966.8 g/ha: 8 lb/acre
Outline: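 Crop and weed species seeded one day before treatment, then sprayed pre-emergence at 8 lbs actual compound per acre (also 4 lbs/acre formulations) in 38 gallons per acre. Pots kept in greenhouse with sub-irrigation only; injury or control visually rated two weeks after treatment.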

Corn (CN) [8] = experiment: Pre-emergence herbicide test; format: in vivo; details: Zea mays, 336 h, two weeks after treatment; for pest or weed control at 8966.8 g/ha: 8 lb/acre
Outline: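 Four corn seeds per pot, sown at seed-diameter depth one day before spraying, got soil surface treatment at 8 lbs/acre (4 lbs/acre formulations also prepared) in 38 gallons/acre. Pots were greenhouse-held with sub-irrigation only. Injury or control was scored visually two weeks after treatment.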

Johnson grass (JG) [9] = experiment: Pre-emergence herbicide test; format: in vivo, Sorgum helepense; details: Sorghum halepense, 336 h, two weeks after treatment; for pest or weed control at 8966.8 g/ha: 8 lb/acre
Outline: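 Pots seeded one day before spraying; compound applied pre-emergence at 8 lbs/acre (or 4 lbs/acre) in 38 gallons/acre spray volume. Sub-irrigated in greenhouse; injury/control rated visually two weeks after treatment.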

Turnip (TP) [10] = experiment: Pre-emergence herbicide test; format: in vivo, Brassica sp.; details: Brassica rapa, pre-emergence, 336 h, two weeks after treatment; for pest or weed control at 8966.8 g/ha: 8 lb/acre
Outline: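 Turnip (Brassica sp.) seeds were surface sown in 3' plastic pots of potting soil, covered with a thin layer of screened soil, and sub-irrigated in greenhouse trays. Pots were seeded one day ahead of treatment, sprayed pre-emergence under a hood with a fixed nozzle and moving belt, then kept in the greenhouse.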

Crabgrass (CG) [11] = experiment: Pre-emergence herbicide test; format: in vivo, Digitaria sanquinalis; details: Digitaria sanguinalis, pre-emergence, 336 h, two weeks after treatment; for pest or weed control at 8966.8 g/ha: 8 lb/acre
Outline: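 Crabgrass (Digitaria sanquinalis) was surface seeded in 3' plastic pots of potting soil, covered with screened soil, and watered by sub-irrigation in greenhouse trays. Pots were seeded one day before spraying in a hood with a moving belt and fixed nozzle. Plants stayed in the greenhouse on sub-irrigation, and pre-emergence control was rated visually two weeks after treatment.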

Cotton (CT) [12] = experiment: Post-emergence herbicide test; format: in vivo, Gossypium hirsutum var. DPL smooth leaf; details: Gossypium hirsutum, post-emergence, 336 h, two weeks after treatment; for pest or weed control at 8966.8 g/ha: 8 lb/acre
Outline: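 Cotton (Gossypium hirsutum var. DPL smooth leaf) was grown in 3' plastic pots of potting soil, four seeds per pot, planted at a depth equal to the seed diameter and watered by sub-irrigation. At the stage of expanded cotyledons with the first true leaf 1' long, plants were sprayed post-emergence in a hood with a fixed nozzle over a moving belt. Percent control was rated visually two weeks later.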

Barnyard grass (BG) [13] = experiment: Pre-emergence herbicide test; format: in vivo; details: Echinochloa crus-galli, 336 h, two weeks after treatment
Outline: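 Barnyard grass surface-seeded in potting soil and sprayed pre-emergence one day after seeding, at 8 or 4 lb compound/acre in 38 gal/acre spray volume. Pots kept in greenhouse with sub-irrigation only; injury or control rated visually two weeks after treatment.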

Corn (CN) [14] = experiment: Post-emergence herbicide test; format: in vivo; details: Zea mays, 336 h, two weeks after treatment; for pest or weed control at 8966.8 g/ha: 8 lb/acre
Outline: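 Greenhouse seedlings grown in potting soil and sprayed post-emergence at 8 lbs compound/acre (formulations also made for 4 lbs/acre) in 38 gallons/acre spray volume. Watering by sub-irrigation only. Injury or control rated visually two weeks after treatment.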

Amaranth pigweed (PW) [15] = experiment: Post-emergence herbicide test; format: in vivo, Amaranthus retroflexus; details: 336 h, two weeks after treatment; for pest or weed control at 8966.8 g/ha: 8 lb/acre
Experimental: Amaranth pigweed (PW)--Amaranthus retroflexus
All crop and weed species were planted individually in 3' plastic pots containing potting soil. Four seeds each of corn, cotton, and snapbeans were seeded to a depth equal to the diameter of the seed. All other species were surface seeded and sprinkled with screened soil in an amount sufficient to cover the seed. Immediately after planting, all pots were watered by sub-irrigation in greenhouse trays. Pots for the pre-emergence phase were seeded one day before treatment.
Planting dates for the post-emergence phase were varied so that all seedlings would reach the desired stage of development simultaneously. The proper stage of seedling development for treatment in the post-emergence phase is as follows:
Pigweed and turnips: 1 or 2 true leaves above visible cotyledons.
Compounds were tested at rates of application equivalent to 8 lbs. of actual compound per acre in a spray volume of 38 gallons per acre. Spray hood constants required to deliver the above volume are as follows:
Formulations for spray applications were prepared in 50 ml volumes with the following three components:
Formulations for the 4 lbs/acre rate were prepared by adjusting the amount of active ingredient accordingly.
Spray applications were made in a hood containing a removable belt and fixed spray nozzle. For passage through the spray hood, one pot of each specie (pre-emergence phase) was placed on the rear half of the flat. Treatments were removed to the greenhouse after spraying. Watering during the observation period was done only by sub-irrigation.
Two weeks after treatment, pre- and post-emergence injury or control was visually rated, and the results were as shown in the following tables. Pre-emergence data are provided in TABLE III and post-emergence data are provided in TABLE IV, for compounds having the formula illustrated in TABLE I. Correspondingly, pre-emergence and post-emergence data, respectively, are set forth in TABLES V AND VI, for compounds having the formula illustrated in TABLE II.

Johnson grass (JG) [16] = experiment: Post-emergence herbicide test; format: in vivo, Sorgum helepense; details: Sorghum halepense, 336 h, two weeks after treatment; for pest or weed control at 8966.8 g/ha: 8 lb/acre
Outline: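 Greenhouse pot-grown seedlings sprayed post-emergence at 8 lbs compound per acre (some at 4 lbs/acre) in 38 gallons per acre spray volume. Sub-irrigated thereafter. Injury/control rated visually two weeks after treatment.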

CCCSc1nnc(N(C)C(=O)NC)s1 [Example 69]
60%: pest or weed control at 4483.4 g/ha (Barnyard grass (BG) [13]; 4 lb/acre)
100%: pest or weed control at 2241.7 g/ha (Turnip (TP) [1]; 2 lb/acre) | pest or weed control at 4483.4 g/ha (Turnip (TP) [1]; 4 lb/acre) | pest or weed control at 8966.8 g/ha (Turnip (TP) [1]) | pest or weed control at 2241.7 g/ha (Bean (BN) [2]; 2 lb/acre) | pest or weed control at 4483.4 g/ha (Bean (BN) [2]; 4 lb/acre) | pest or weed control at 8966.8 g/ha (Bean (BN) [2]) | pest or weed control at 4483.4 g/ha (Amaranth pigweed (PW) [4]; 4 lb/acre) | pest or weed control at 8966.8 g/ha (Amaranth pigweed (PW) [4]) | pest or weed control at 8966.8 g/ha (Bean (BN) [5]) | pest or weed control (Crabgrass (CG) [6]; 2 lb/acre) | pest or weed control at 8966.8 g/ha (Crabgrass (CG) [6]) | pest or weed control at 8966.8 g/ha (Turnip (TP) [10]) | pest or weed control at 8966.8 g/ha (Crabgrass (CG) [11]) | pest or weed control at 2241.7 g/ha (Cotton (CT) [12]; 2 lb/acre) | pest or weed control at 4483.4 g/ha (Cotton (CT) [12]; 4 lb/acre) | pest or weed control at 8966.8 g/ha (Cotton (CT) [12]) | pest or weed control at 8966.8 g/ha (Corn (CN) [14]) | pest or weed control at 4483.4 g/ha (Amaranth pigweed (PW) [15]; 4 lb/acre) | pest or weed control at 8966.8 g/ha (Amaranth pigweed (PW) [15]) | pest or weed control at 8966.8 g/ha (Johnson grass (JG) [16])
40%: pest or weed control at 4483.4 g/ha (Johnson grass (JG) [9]; 4 lb/acre) | pest or weed control at 2241.7 g/ha (Barnyard grass (BG) [13]; 2 lb/acre)
80%: pest or weed control at 4483.4 g/ha (Barnyard grass (BG) [3]; 4 lb/acre) | pest or weed control (Corn (CN) [14]; 2 lb/acre) | pest or weed control at 4483.4 g/ha (Johnson grass (JG) [16]; 4 lb/acre)
50%: pest or weed control at 2241.7 g/ha (Cotton (CT) [7]; 2 lb/acre) | pest or weed control at 8966.8 g/ha (Corn (CN) [8]) | pest or weed control at 4483.4 g/ha (Turnip (TP) [10]; 4 lb/acre) | pest or weed control at 4483.4 g/ha (Corn (CN) [14]; 4 lb/acre)
90%: pest or weed control at 2241.7 g/ha (Barnyard grass (BG) [3]; 2 lb/acre) | pest or weed control at 4483.4 g/ha (Crabgrass (CG) [6]; 4 lb/acre) | pest or weed control at 8966.8 g/ha (Cotton (CT) [7]) | pest or weed control at 2241.7 g/ha (Turnip (TP) [10]; 2 lb/acre) | pest or weed control (Crabgrass (CG) [11]; 2 lb/acre) | pest or weed control at 4483.4 g/ha (Crabgrass (CG) [11]; 4 lb/acre)
0%: pest or weed control at 2241.7 g/ha (Bean (BN) [5]; 2 lb/acre) | pest or weed control at 4483.4 g/ha (Bean (BN) [5]; 4 lb/acre) | pest or weed control at 4483.4 g/ha (Corn (CN) [8]; 4 lb/acre)
70%: pest or weed control at 8966.8 g/ha (Johnson grass (JG) [9]) | pest or weed control (Johnson grass (JG) [16]; 2 lb/acre)
20%: pest or weed control at 2241.7 g/ha (Johnson grass (JG) [9]; 2 lb/acre)
30%: pest or weed control at 4483.4 g/ha (Cotton (CT) [7]; 4 lb/acre) | pest or weed control at 2241.7 g/ha (Corn (CN) [8]; 2 lb/acre)

CNC(=O)Nc1nnc(SCc2ccc(Cl)cc2)s1 [Example 87]
20%: pest or weed control at 8966.8 g/ha (Barnyard grass (BG) [3]; 8 lb/acre) | pest or weed control at 8966.8 g/ha (Crabgrass (CG) [6]) | pest or weed control at 8966.8 g/ha (Johnson grass (JG) [9]) | pest or weed control at 8966.8 g/ha (Barnyard grass (BG) [13]; 8 lb/acre)
100%: pest or weed control at 8966.8 g/ha (Bean (BN) [2]) | pest or weed control at 8966.8 g/ha (Bean (BN) [5])
70%: pest or weed control at 8966.8 g/ha (Amaranth pigweed (PW) [4]) | pest or weed control at 8966.8 g/ha (Cotton (CT) [12])
50%: pest or weed control at 8966.8 g/ha (Cotton (CT) [7])
40%: pest or weed control at 8966.8 g/ha (Amaranth pigweed (PW) [15])
60%: pest or weed control at 8966.8 g/ha (Turnip (TP) [1])
10%: pest or weed control at 8966.8 g/ha (Corn (CN) [8]) | pest or weed control at 8966.8 g/ha (Turnip (TP) [10]) | pest or weed control at 8966.8 g/ha (Crabgrass (CG) [11]) | pest or weed control at 8966.8 g/ha (Corn (CN) [14]) | pest or weed control at 8966.8 g/ha (Johnson grass (JG) [16])
